Source: PMC6359137 (2019)

Tested on: AFM1 aptamer (DNA, aptamer) ACTGCTAGAGATTTTCCACAT
Assay: strand displacement, Exo III-amplified NMM fluorescence
Conditions: K+ 75 mM, Mg2+ 10 mM; C-strand (S2) displaced; highest tested 1 ng mL^-1; 37 °C; compared with blank milk

C[C@@H]1Cc2c(Cl)cc(C(=O)N[C@@H](Cc3ccccc3)C(=O)O)c(O)c2C(=O)O1
binding: no
